Broadly, the Kd is a measure of binding affinity in units of concentration. The IC50 is the concentration that inhibits the measured activity by half. In general, inhibition refers to the drop in the measured response relative to a control, in per cent.

Structures can show the parent of a compound that is named as a salt.

The text below walks through data of patent EP3057950B1, “PHENYL LINKED QUINOLINYL MODULATORS OF ROR-GAMMA-T” (Janssen Pharmaceutica NV, priority 2013, dated 2015).

For experiment [1], the target named is T1, wild type human RORγt ligand binding domain (RORγt LBD) (Homo sapiens, UniProt P51449).
T1 construct: His-tag (N); TurboTEV protease cleavage site (ENLYFQG) (N); made in house; host or cells: E. coli (pHIS1, modified pET expression vector)
T1 sequence (P51449 269-508 limits assumed): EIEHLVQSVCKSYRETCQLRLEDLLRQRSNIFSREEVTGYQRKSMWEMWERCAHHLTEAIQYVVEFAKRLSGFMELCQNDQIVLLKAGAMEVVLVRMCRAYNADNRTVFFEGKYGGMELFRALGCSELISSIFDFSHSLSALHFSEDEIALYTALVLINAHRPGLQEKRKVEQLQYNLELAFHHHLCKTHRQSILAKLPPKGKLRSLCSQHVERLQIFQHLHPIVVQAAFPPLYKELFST
In words: RORγt ThermoFluor® Assay (thermal shift, binding affinity). The settings on record: pH 7.0, estimated from concentration response curves. Put shortly:
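Thermal shift assay on 0.065 mg/mL RORγt LBD with 60 µM 1,8-ANS in 100 mM Hepes pH 7.0, 10 mM NaCl, 2.5 mM GSH, 0.002% Tween-20. Heated at 1 °C/min, fluorescence read at 500 nm.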

Experiment [2] addresses T2, wild type human RORγt LBD (Homo sapiens, UniProt P51449).
T2 construct: expressed in transfected cells; host or cells: HEK293T
T2 sequence (P51449 269-508 limits assumed): T1 sequence (P51449 269-508 limits assumed)
As to the kind of experiment: RORγt Reporter Assay (GAL4-RORγt LBD luciferase in HEK293T cells). It is filed as cell-based. The settings on record: HEK293T cells; for IC50: compounds for 24 hours, read-out: RORγt reporter Assay, IC50; for inhibition at 6 µM: HEK-293T, read-out: RORγt reporter Assay, % inhibition @ 6 µM, @ 6 µM. The gist of the method:
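HEK293T cells transiently co-transfected with GAL4-DBD–human RORγt LBD (or AF2 mutant) and GAL4-responsive firefly luciferase reporter; renilla luciferase normalised transfection and viability. Compounds applied 24 h in 5% lipid-reduced FCS; firefly/renilla ratio plotted against concentration.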
(In a reporter assay the amount or activity of a reporter protein is the signal.)

The test system of experiment [3] is IL-17 production by CD4 T cells. In words: Human Th17 Assay (IL-17 production by CD4 T cells under Th17 differentiation conditions). It counts as cell-based. To be noted: 3 days, IL-17 in supernatant. The method, then:
The human Th17 assay tests the effect of RORγt modulatory compounds on IL-17 production by CD4 T cells under conditions which favor Th17 differentiation. Total CD4^+ T cells were isolated from the peripheral blood mononuclear cells (PBMC) of healthy donors using a CD4^+ T cell isolation kit II, following the manufacturer's instructions (Miltenyi Biotec). […] 50 µL of compound at titrated concentrations in DMSO were added into each well at final DMSO concentration at 0.2%. Cells were incubated for 1 hour, then 50 µL of Th17 cell differentiation medium was added to each well. The final concentrations of antibodies and cytokines (R&D Systems) in differentiation medium were: 3x10^6/mL anti-CD3/CD28 beads (prepared using human T cell activation/expansion kit, Miltenyi Biotec), 10 µg/mL anti-IL4, 10 µg/mL anti-IFNγ, 10 ng/mL […], 10 ng/mL IL23, 50 ng/mL IL6, 3 ng/mL TGFβ and 20 U/mL IL2. Cells were cultured at 37 °C and 5% CO2 for 3 days. Supernatants were collected and the accumulated IL-17 in culture was measured by using MULTI-SPOT® Cytokine Plate following manufacture's instruction (Meso Scale Discovery). The plate was read using Sector Imager 6000, and IL-17 concentration was extrapolated from the standard curve. The IC50s were determined by GraphPad.

Take `COc1nc2ccc(C(O)(c3cnnn3C)c3cnc(C)n3C)cc2c(Cl)c1-c1ccccc1` (single isomer, unassigned) [Example 41b, (4-Chloro-2-methoxy-3-phenylquinolin-6-yl)(1,2-dimethyl-1H-imidazol-5-yl)(1-methyl-1H-1,2,3-triazol-5-yl)methanol]: the dissociation constant (Kd) in experiment [1] is 1.4 nM. In experiment [2], the IC50 was found to be 8.6 nM and the inhibition at 6 µM was 102%. In experiment [3], this compound displayed an IC50 of 7 nM.
For the compound `COc1nc2ccc(C(O)(c3cnnn3C)c3cnc(C)n3C)cc2c(Cl)c1-c1ccccc1` (single isomer, unassigned) [Example 41c, (4-Chloro-2-methoxy-3-phenylquinolin-6-yl)(1,2-dimethyl-1H-imidazol-5-yl)(1-methyl-1H-1,2,3-triazol-5-yl)methanol], in experiment [1], the Kd was 6.5 nM. For the same compound, in experiment [2], the “RORγt reporter Assay, % inhibition @ 6 µM” value stood at 102% and the concentration for half-maximal inhibition (IC50) worked out at 270 nM. Besides, the midpoint of inhibition in experiment [3], the IC50, lay at 210 nM.
Consider `Cc1nc(C)c(C(O)(c2ccc3nc(C#N)c(-c4ccccc4)c(C#N)c3c2)c2cnnn2C)s1` (single isomer, unassigned) [Example 47c, 6-((2,4-Dimethylthiazol-5-yl)(hydroxy)(1-methyl-1H-1,2,3-triazol-5-yl)methyl)-3-phenylquinoline-2,4-dicarbonitrile], for which the Kd in experiment [1] is 1.9 nM. The “RORγt reporter Assay, % inhibition @ 6 µM” value in experiment [2] was 100%. Besides, the concentration for half-maximal inhibition (IC50) was determined as 25 nM in experiment [2] and 54 nM in experiment [3] (Homo sapiens, CD4+ T, 72 h).
On to `COc1nc2ccc(C(O)(c3ccc(C(F)(F)F)nc3)c3cncn3C)cc2c(Cl)c1-c1cncnc1` (stereo not shown) [Example 10, (4-Chloro-2-methoxy-3-pyrimidin-5-ylquinolin-6-yl)(1-methyl-1H-imidazol-5-yl)[6-(trifluoromethyl)pyridin-3-yl]methanol•TFA], for which the Kd in experiment [1] is 200 nM. In addition, in experiment [2], the concentration for half-maximal inhibition (IC50) was 320 nM and the inhibition at 6 µM stood at 89%. The compound further had an IC50 in experiment [3] (Homo sapiens, CD4+ T, 72 h) of 1500 nM.
`COc1nc2ccc(C(O)(c3ccc(C(F)(F)F)nc3)c3cncn3C)cc2c(Cl)c1-c1ccc(C#N)cc1` (stereo not shown) [Example 16, 4-(4-Chloro-6-{hydroxy(1-methyl-1H-imidazol-5-yl)[6-(trifluoromethyl)pyridin-3-yl]methyl}-2-methoxyquinolin-3-yl)benzonitrile•TFA]: the equilibrium dissociation constant (Kd) in experiment [1] was 27 nM. In addition, the IC50 in experiment [2] came to 200 nM; in experiment [3] (Homo sapiens, CD4+ T, 72 h), 81 nM. Besides, the inhibition at 6 µM in experiment [2] amounted to 86%.
The matching figures for `Cn1cncc1C(O)(c1ccc2nc(C(F)(F)F)c(-c3ccccc3)c(Cl)c2c1)c1ccccn1` (stereo not shown) [Example 61, (4-Chloro-3-phenyl-2-(trifluoromethyl)quinolin-6-yl)(1-methyl-1H-imidazol-5-yl)(pyridin-2-yl)methanol•TFA]: 450 nM, 130 nM, 480 nM and 105%.
The matching figures for `OC(c1ccccc1)(c1ccncc1)c1ccc2nc(Cl)c(-c3ccccc3Cl)c(Cl)c2c1` (stereo not shown) [Example 73, (2,4-Dichloro-3-(2-chlorophenyl)quinolin-6-yl)(phenyl)(pyridin-4-yl)methanol]: 20000 nM, 700 nM, about 6000 nM and 80%.
